Patent US9822128B1, “Substituted spirooxindoles” (KING SAUD UNIVERSITY, priority 2017, dated 2017)
Like-named read-outs stand apart in the source and are kept apart here.

Assays:
Assay type in all cases: cell-based, human
[1] = system: HCT-116 cells; assay: Wound-healing assay; settings: HCT-116, 1 μM, images at 0, 4, 24 and 48 hours, vs DMSO
Procedure: HCT-116 cells were seeded in 6 well plate as 10*10^4 cells per ml (2 ml in each well) and incubated overnight at 37° C. and 5% CO2. On the second day, a scratch was created in each well by using a sterile P200 tip, and then the medium was replaced with fresh medium containing either DMSO or 1 μM of compound 4d. Photomicrograph images were taken at different time points (0, 4, 24 and 48 hours) to monitor the wound closure. After that, the cells were washed two times with ice-cold 1×PBS and fixed with ice-cold methanol for 20 min at 4° C. The fixed cells were washed two times with 1×PBS and stained with 0.5% crystal violet for 30 min. The extra stain was washed off by dH2O until no color in the washing is observed. The images were captured by Gx microscopes (GXMGXD202 Inverted Microscope) (10× Eyepiece) after staining with crystal violet. The size of the wound was measured by using ImageJ 1.47v software. […] This confirms the ability of compound 4d to enhance tumor suppressor activities.

[2] = system: PC-3; assay: MTT cytotoxicity assay, prostate carcinoma cells; settings: for IC50: Homo sapiens, PC-3, MTT, 48 hrs incubation
Procedure: (§1) The cytotoxic activity of the compounds was tested against different mammalian cancer cells, prostate carcinoma cells (PC-3), hepatocellular carcinoma (HepG2) and colon cancer cells (HCT-116) and against African green monkey kidney cell line (Vero-B). The cell lines were obtained from American Type Culture Collection (ATCC). The cells were cultivated at 37° C. and 10% CO2 in DMEM (Lonza, 12-604F) medium supplemented with 10% fetal bovine serum (FBS, Lonza, Cat. No. 14-801E), 100 IU/ml penicillin and 100 μg/ml streptomycin (Lonza, 17-602E). Cisplatin (cis-diamineplatinum (II) dichloride) was used as a positive control and was obtained from Sigma then dissolved in 0.9% saline then stored as 8 mM stock solution at −20° C. The synthesized compounds were solubilized in DMSO and stored at −20° C. 0.5% crystal violet was prepared in Methanol and was used to stain the viable cells (Feoktistova, Geserick et al. 2016). Crystal violet binds to proteins and DNA in the adherent and viable cells so the stain is an indicator for the viability of the treated cells. The viability of the cells were quantified by using MTT reagent (3-(4,5-dimethylthiazol-2-yl)-2,5-diphenyl tetrazolium bromide), which measure the activity of mitochondrial dehydrogenase in the viable cells (Slater, Sawyer et al. 1963, Mosmann 1983).
(§2) Cytotoxicity was further assayed as follows. The cells were seeded in 96-well plate as 5*10^4 cells/mL (100 μL/well). A serial dilutions of tested compounds or cisplatin (100, 30, 10, 3.3, 1.1 or 0.37 μM) was added after overnight incubation of the cells at 37° C. and 5% CO2. DMSO was used as a control (0.1%). The cells were incubated for 48 hrs. After that, 15 μl of MTT (5 mg/mL PBS) was added to each well and incubated for another 4 hours. The formazan crystals were solubilized by 100 μL acidified SDS solution (10% SDS/0.01 M HCl). The absorbance was measured after 14 hours of incubation at 37° C. and 5% CO2 at 570 nm by Biotech plate reader. Each experiment was repeated three times and standard deviation was calculated (±). IC50% was calculated as the concentration that cause 50% inhibition for cell growth. The growth of the cells were monitored and the images were acquired by Gx microscopes (GXMGXD202 Inverted Microscope) (10× Eyepiece) after staining with crystal violet.

[3] = system: HCT-116 cells; assay: Induction of apoptosis (annexin-V / 7-AAD flow cytometry)
Procedure: The HCT-116 cells were seeded at 5*10^4 cells/mL density in a 6-well plate. The cells were treated with 2 μM 4d for 48 hrs, and the cells were collected after trypsin enzyme treatment and washed two times with ice-cold 1×PBS. The cells were incubated for 2 hours at 4° C. in PBS, then centrifuged and re-suspended in 1× binding buffer. Then 5 μL PE annexin-V and 5 μL 7-amino-actinomycin D (7-AAD) were added to 100 μL of cell suspension and incubated for 15 min at RT in the dark, and then 400 μL of 1× binding buffer was added to the cell suspension and analyzed within 1 hour by BD Accuri™ C6 Plus flow cytometer. The following controls were used to set up the machine: cells unstained with PE annexin V and 7-AAD, cells stained with PE annexin V only, cells stained with 7-AAD only. The level of apoptotic cells, whether in early (+ve annexin-V and −ve PI) or late stage (+ve Annexin-V and +ve PI), was determined. […] The results are shown in FIG. 5A (untreated cells) and FIG. 5B (treated with just 1 μM of compound 4d for 24 hours).

[4] = system: HepG2; assay: MTT cytotoxicity assay, hepatocellular carcinoma cells; settings: for IC50: Homo sapiens, HepG2, MTT, 48 hrs incubation
Procedure: as §1, §2

Structure (SMILES): O=C(/C=C/c1ccc(Cl)cc1Cl)[C@H]1[C@H](c2ccc(Cl)cc2Cl)[C@H]2CSCN2[C@]12C(=O)Nc1ccccc12 [Compound 4d, (3R,6′S,7′R,7a′S)-7′-(2,4-dichlorophenyl)-6′-((E)-3-(2,4-dichlorophenyl)acryloyl)-1′,6′,7′,7a′-tetrahydro-3′H-spiro[indoline-3,5′-pyrrolo[1,2-c]thiazol]-2-one]
- wound closure [1]: inhibited wound closure
- IC50 ([2]; read-out: PC-3 (IC50% μM)): 1.8 ± 0.3 µM
- IC50 ([2]; read-out: PC-3 (IC50% μg/ml)): 1.1 µg/mL
- SI ([2]; Selectivity Index from IC50 normal (VERO-B) and IC50 cancer (PC-3)): 2.778
- induction of apoptosis ([3]; HCT-116, 1 μM, 24 hours): could induce the apoptosis
- apoptotic cells ([3]; HCT-116, 2 μM, 48 hours): greatly increased the apoptotic cells
- IC50 ([4]; read-out: HepG2 (IC50% μM)): 0.85 ± 0.2 µM
- IC50 ([4]; read-out: HepG2 (IC50% μg/ml)): 0.5 µg/mL
- SI ([4]; Selectivity Index from IC50 normal (VERO-B) and IC50 cancer (HepG2)): 5.882
